Here are results for one molecule from paper PMC7600243, “Live Imaging of Phosphate Levels in Arabidopsis Root Cells Expressing a FRET-Based Phosphate Sensor” (Plants, 2020).

The target in the assay is PiBP (Pi binding bacterial periplasmic Binding Protein) of the FLIPPi sensors FLIPPi-30m and FLIPPi-4µ. The conditions noted are these: pH 7.0; 20 mM Tris-HCl or MOPS; in planta, externally applied Pi buffer 0-200 mM; inhibitor dose response fit, variable slope.

Each structure is given as a SMILES string. pKd: −log10 of the molar value.

On to `O=P(O)(O)O` [Pi, inorganic phosphate], for which the pKd was 1.46.

In general, pKd refers to −log10 of the Kd, conventionally taken in molar units. Low values mean a high Kd, high ones a low Kd.
